Measured values as given in patent US20090023186A1, “USE OF VALPROIC ACID FOR ENHANCING PRODUCTION OF RECOMBINANT PROTEINS IN MAMMALIAN CELLS” (EXCELLGENE SA, priority 2007, published 2009).

Key:
HEK293E cells [1] = test: Preferred embodiment: transient IgG expression with p18 and p21 co-transfection, batch titer by ELISA; assay type: cell-based, Human; conditions: day 14 after transfection
Description: 20 million suspension-adapted HEK293E cells were resuspended in 1 ml of Ex-Cell 293 HEK 293 serum-free medium with 4 mmol/l L-glutamine (Cat. No. 14571C-[…]; Lot No. 6A0093; SAFC Biosciences, Lenexa, Kans., USA, “Ex-Cell” medium; note: “Ex-Cell” medium-as used herein-refers to a medium comprising 4 mmol/l L-glutamine) in a 50-ml filter tube each (TPP AG, Trasadingen, Switzerland; Cat. No. 87050, Lot 20050174). Then 50 μg plasmid DNA at a concentration of 1 μg/μl was added in each tube with the following composition […] Plasmid p-LC comprises the genetic information for the production of the light chain of an IgG antibody, plasmid p-HC comprises the genetic information for the production of the heavy chain of an IgG antibody, plasmid p-p18 comprises the genetic information for the protein p18, and plasmid p-p21 comprises the genetic information for the protein p21. The particular vector constructs used in the present invention can also be obtained from the inventors. The inventors can be contacted via e-mail at […]. Moreover, commercial services do exist that produce any desired nucleotide sequence even comprising several kilobase pairs including complete expression cassettes in plasmid backgrounds (e.g., Invitrogen, Carlsbad, USA; Geneart, Germany.) Thus, providing the genetic sequence information of the plasmids should enable one of ordinary skill in the art to order the plasmids of the present invention at one of the commercial services listed. After shortly mixing the DNA with the cells by gentle shaking, 100 μg of 25-kd linear polyethyleneimine (“PEI”; Polysciences, Eppelheim, Germany; [2]) were added at a concentration of 1 μg/μl to each of the tubes. After shortly mixing by gentle shaking, the filter tubes containing the cells together with the DNA and PEI were transferred into an orbital shaker (Kühner Shaker Cabinet ISF-4-W, “Kühner shaker”, Kühner AG, Birsfelden, Switzerland), and the cells were incubated for 3 hours at 37° C. in a 5% CO2 atmosphere under shaking at 180 rpm. After that time, 4 ml of Ex-Cell medium were added to each of the filter tubes. […] No. B5887-1G; Sigma-Aldrich Chemie GmbH, Industriestrasse 25, CH-9471 Buchs SG) was added to the corresponding tubes at the corresponding final concentrations. […] The ELISA was performed as published in prior art. In short, Goat anti-human kappa light chain IgG (Biosource) was used for coating the ELISA-plates, and with AP-conjugated goat anti-human gamma chain IgG (Biosource) the synthesized IgG1 was detected. NPP was used as a substrate for the alkaline phosphatase. Absorption was measured at 405 nm against 490 nm using a microplate reader (SPECTRAmaxTM340; Molecular Devices, Palo Alto, Calif., USA).

HEK293E cells [2] = test: Influence of temperature on IgG batch titer and comparison with sodium butyrate (Example 2); assay type: cell-based, Human; conditions: day 5 after transfection
Description: No. 14571C-[…]; Lot No. 6A0093; SAFC Biosciences, Lenexa, Kans., USA, “Ex-Cell” medium; note: “Ex-Cell” medium-as used herein-refers to a medium comprising 4 mmol/l L-glutamine) in a 50-ml filter tube each (TPP AG, Trasadingen, Switzerland; Cat. No. 87050, Lot 20050174). In a separate set, 10 million suspension-adapted CHO DG44 cells were resuspended in 0.5 ml of ProCHO5 serum-free medium with 4 mmol/[…] hypoxanthine and 0.194 g/l thymidine (BioWhittaker (Lonza), Belgium; Cat. No. BE12-[…]; Lot No. 7 MB0040; “ProCHO5” medium; note: “ProCHO5” medium-as used herein-refers to a medium comprising 4 mmol/[…] hypoxanthine and 0.194 g/l thymidine) in a 50-ml filter tube each (TPP AG, Trasadingen, Switzerland; Cat. No. 87050, Lot 20050174). Then 12.5 μg plasmid DNA at a concentration of 1 μg/μl was added in each tube with the following composition 50% (6.25 μg) p-LC (SEQ ID NO: 1) 50% (6.25 μg) p-HC (SEQ ID NO: 3). Plasmid p-LC comprises the genetic information for the production of the light chain of an IgG antibody, plasmid p-HC comprises the genetic information for the production of the heavy chain of an IgG antibody. The particular vector constructs used in the present invention can also be obtained from the inventors. The inventors can be contacted via e-mail at […]. Moreover, commercial services do exist that produce any desired nucleotide sequence even comprising several kilobase pairs including complete expression cassettes in plasmid backgrounds (e.g., Invitrogen, Carlsbad, USA; Geneart, Germany.) Thus, providing the genetic sequence information of the plasmids should enable one of ordinary skill in the art to order the plasmids of the present invention at one of the commercial services listed. After shortly mixing the DNA with the cells by gentle shaking, 25 μg of 25-kd linear polyethyleneimine (“PEI”; Polysciences, Eppelheim, Germany; [2]) were added at a concentration of 1 μg/μl to each of the tubes. After shortly mixing by gentle shaking, the filter tubes containing the cells together with the DNA and PEI were transferred into an orbital shaker (Kühner Shaker Cabinet ISF-4-W, “Kühner shaker”, Kühner AG, Birsfelden, Switzerland), and the cells were incubated for 4 hours at 37° C. in a 5% CO2 atmosphere under shaking at 180 rpm. After that time, 4.5 ml of Ex-Cell medium were added to each of the filter tubes containing HEK 293 cells and 4.5 ml of Pro-CHO5 were added to each of the filter tubes containing CHO DG44 cells. […] No. […] Sigma-Aldrich Chemie GmbH, Industriestrasse 25, CH-9471 Buchs SG) was added to the corresponding tubes at the corresponding final concentrations. The cells then were returned into the Kühner shaker. Half the tubes were incubated at 37° C. in a 5% CO2 atmosphere under shaking at 180 rpm, the other half was incubated at 31° C. […] The ELISA was performed as published in prior art. In short, Goat anti-human kappa light chain IgG (Biosource) was used for coating the ELISA-plates, and with AP-conjugated goat anti-human gamma chain IgG (Biosource) the synthesized IgG1 was detected. NPP was used as a substrate for the alkaline phosphatase. Absorption was measured at 405 nm against 490 nm using a microplate reader (SPECTRAmaxTM340; Molecular Devices, Palo Alto, Calif., USA).

[3] = 3.8 mmol/l VPA, relative to control = 1

CCCC(CCC)C(=O)O [VPA, valproic acid]
Batch titer (HEK293E cells [1]; 3.8 mmol/l VPA, IgG with p18 and p21): 962 ± 73 mg/L | Fold increase over control (HEK293E cells [1]; 3.8 mmol/l VPA): 13.2 fold | batch titers compared to adding sodium butyrate (HEK293E cells [1]): higher | Batch titer increase at 31° C. (HEK293E cells [2]; [3]): 5.3 ± 0.4 | Batch titer increase at 37° C. (HEK293E cells [2]; [3]): 5.3 ± 0.5 | performance compared with sodium butyrate (batch titer increase) (HEK293E cells [2]; 31° C. and 37° C.): slightly better performance than sodium butyrate
